The results in this text go back to US20130190278A1, “Compounds for the Treatment/Prevention of Ocular Inflammatory Diseases” (Laboratoires Fournier SA, priority 2010, published 2013).

The subject of the assay is dry eye induced by scopolamine and extractor hood. The assay is described as follows: Dry eye model (scopolamine + desiccation), tear production by Phenol Red test (PRTT). It is filed as in vivo, mice. The note with it: instillations of 0.1% twice a day. The method, then: Dry eye is induced in mice by the combination of scopolamine, which blocks the muscarinic cholinergic receptors of lacrimal glands, and by placing the mice in an extractor hood that reduces humidity and increases air flow. The production and volume of aqueous tears, tear clearance, and the corneal barrier function are evaluated before treatment, and then twice a week after treatment. The results are compared between groups of untreated control mice, and groups of mice placed in the extractor hood, treated with the anticholinergic agent scopolamine, treated or not with tresperimus.
Male 129SV/CD-1 mice were used in this study and received three sub-cutaneous injections of 200 μl of scopolamine at 2.5 mg/mL in saline for 21 days. The mice were placed in an extractor hood (humidity <50%) during the whole experiment.
Tear production (PRTT) was measured with cotton threads impregnated with Phenol Red (Zone-quick; Menicon, Japan) applied to the ocular surface in the lateral canthus for 60 seconds. Wetting of the thread was measured in millimeters, using the scale on the cotton thread.

Structures are written as SMILES.

As for `C[C@@H]1C[C@H]2[C@@H]3CCC4=CC(=O)C=C[C@]4(C)[C@@]3(F)[C@@H](O)C[C@]2(C)[C@@]1(O)C(=O)CO` [dexamethasone], the “Tear volume (Phenol Red test)” value is reported as “no significant effect”.
